Measured values published in article PMC3523284 (Cell metabolism, 2012).

Experiments:
Mss51 [1] = target: Mss51 (Saccharomyces cerevisiae, UniProt P32335, C85S); assay: difference UV-visible spectroscopy titration; type: binding
Mss51 [2] = target: T1, Mss51 (Saccharomyces cerevisiae, UniProt P32335); assay: difference UV-visible spectroscopy titration; type: binding
T1 sequence (P32335 1-436): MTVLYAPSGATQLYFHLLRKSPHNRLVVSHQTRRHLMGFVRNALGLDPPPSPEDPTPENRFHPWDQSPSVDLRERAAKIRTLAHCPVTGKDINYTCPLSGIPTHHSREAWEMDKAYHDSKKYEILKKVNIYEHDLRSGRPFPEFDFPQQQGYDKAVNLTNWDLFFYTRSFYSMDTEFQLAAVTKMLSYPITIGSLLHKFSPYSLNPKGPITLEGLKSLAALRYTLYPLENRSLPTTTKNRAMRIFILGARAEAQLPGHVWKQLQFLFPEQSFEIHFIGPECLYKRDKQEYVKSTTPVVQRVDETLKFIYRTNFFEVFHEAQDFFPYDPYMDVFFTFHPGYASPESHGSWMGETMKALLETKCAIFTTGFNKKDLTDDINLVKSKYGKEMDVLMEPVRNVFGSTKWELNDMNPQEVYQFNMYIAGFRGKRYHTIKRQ

Chain of Mss51 (Saccharomyces cerevisiae, UniProt P32335, C85S) (P32335 whole entry C85S): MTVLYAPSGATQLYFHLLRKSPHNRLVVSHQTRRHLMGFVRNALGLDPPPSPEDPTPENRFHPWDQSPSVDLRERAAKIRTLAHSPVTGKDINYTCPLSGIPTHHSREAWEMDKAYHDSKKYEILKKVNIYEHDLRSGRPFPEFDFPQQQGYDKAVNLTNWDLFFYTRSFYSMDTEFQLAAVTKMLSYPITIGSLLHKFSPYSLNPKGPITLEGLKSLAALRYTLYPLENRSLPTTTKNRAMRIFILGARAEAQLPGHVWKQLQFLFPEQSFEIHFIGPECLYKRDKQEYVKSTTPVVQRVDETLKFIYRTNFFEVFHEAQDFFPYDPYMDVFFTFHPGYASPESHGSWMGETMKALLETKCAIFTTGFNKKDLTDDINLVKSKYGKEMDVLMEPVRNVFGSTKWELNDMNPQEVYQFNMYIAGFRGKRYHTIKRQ

`C=CC1=C(C)C2=Cc3c(C=C)c(C)c4[n]3[Fe]([Cl])[n]3c(c(C)c(CCC(=O)O)c3=CC3=NC(=C4)C(C)=C3CCC(=O)O)=CC1=N2` [hemin] gave a Kd (Mss51 [1]) of 324 ± 74 nM and a Kd (Mss51 [2]) of roughly 445 nM.
